Experimental data reported in article PMC10819430, “Binding Affinity and Mechanism of Six PFAS with Human Serum Albumin: Insights from Multi-Spectroscopy, DFT and Molecular Dynamics Approaches” (Toxics, 2024).
Several values for one entry are separate records, joined by “and”; a condition that tells them apart may be missing. Equal entries are not always repeated. Entries after “also recorded” stand apart in the source; their conditions may differ. Where two headings read alike, the source gives them in different places.

Assays:
[1] = human body, cited from earlier work
[2] = biological target: T1, Human Serum Albumin (HSA) (Homo sapiens, UniProt P02768); test: Fluorescence quenching of HSA by PFAS (Stern–Volmer, double logarithmic and Van't Hoff analysis); type: binding; details: for quenching of HSA fluorescence intensity: PFAS 1.8 × 10^−5 mol·L^−1, HSA 1 × 10^−6 mol·L^−1, 298 K; for ΔH / ΔS: Van't Hoff, 298–310 K; for HSA fluorescence peak position after PFAS addition (blue shift from 337 nm): as the concentration of PFAS increases; for affinity for HSA: fluorescence quenching experiments; for main interaction force from thermodynamic analysis: signs of ΔH and ΔS
T1 construct: HSA (≥96%) and six PFAS were all purchased from Aladdin Chemicals (Shanghai, China); purchased Aladdin Chemicals (Shanghai, China)
Description: Fluorescence quenching experiments greatly benefit studies on the interactions between ligands and proteins. Initially, 3 mL of HSA stock solution was put into a 10 mm square quartz cuvette. Following that, PFAS stock solution was gradually added to achieve various final concentrations, namely 0, 3, 6, 9, 12, 15, 18 × 10^−6 mol·L^−1. By incrementally increasing the molar ratio of PFAS vs. HSA up to 18, their binding characteristics can be better investigated.
A thermostat (TR-01A, Bishui Corp, Beijing, China) was used to precisely control the solution temperature, which was set at 298, 304, and 310 K. This device includes a temperature controller and a metal heating cuvette module in conjunction with a fluorometer. This thermostat has a temperature range of 20–60 °C (293–333 K) and an accuracy of 0.1 °C Celsius. This step is critical for keeping the experimental conditions stable. Following that, the samples were fluorescence-scanned with a fluorometer (Cary Eclipse, Agilent, CA, USA). The excitation wavelength was set at 275 nm to efficiently stimulate tryptophan (Trp) and tyrosine (Tyr) residues. Additional test parameters include an emission of 275–500 nm, scanning rate of 1200 nm/min and PTV voltage of 700 v. Fluorescence quenching experiments were repeated three times, and the average values were taken for further calculation.
Fluorescence internal filtration (IFE) refers to the phenomenon where the fluorescence intensity decreases during fluorescence measurement due to the absorption of excitation or emission light by sample components (small molecules or proteins) in solution [19, 20]. This phenomenon is more obvious in the samples with a high concentration of adsorbent. A fluorescence correction formula was used in this study to correct the IFE effect on the data, as follows: Fcorr=Fobs×10^Aex+Aem/2 where Fcorr and Fobs are corrected and observed fluorescence emission intensities, respectively, Aex and Aem are UV-vis absorbances at the excitation and emission wavelengths.
The quenching constant can be calculated using the Stern–Volmer Equation (3). The results are shown in Table 2 and Figure 1: F0/F=1+Kqτ0=1+KsvQ where F0 and F refer to HSA fluorescence intensities without and with the quencher (PFAS solution); Kq is the biomacromolecule’s quenching rate constant; τ0 is the average fluorescence lifetime of the fluorescent molecule when the quencher PFAS is absent, usually taken as 10^−8 s; [Q] is the PFAS concentration; Ksv is the Stern–Volmer quenching constant; F0/F is the vertical axis; the Stern–Volmer curves of this system are 298, 304, and 310 K.
The double logarithmic formula can be used to calculate the binding constants and binding site numbers of HSA–PFAS complexes: logF0−F/F=logKb+nlogQ where F0 and F are parameters representing the initial fluorescence intensity and the fluorescence intensity after adding PFAS, respectively. The binding characteristics are represented by the binding constant, Kb, and the number of binding sites, n. The slope of the straight line is the number of binding sites, n, and the binding constant Kb is obtained from the exponent of the straight line’s intercept using the double logarithmic graph. Figure A2 and Table 2 show the calculation results.
The enthalpy change (∆H), entropy change (∆S), and free energy change (∆G) calculated from the Van’t Hoff equation [50] can be used to determine the type of interaction. lnKb=−ΔH/RT+ΔS/R ΔG=ΔH−TΔS=−RTlnKb where R represents the ideal gas constant (8.314 J·mol^−1·K^−1).

HSA [3] = biological target: T2, HSA (Homo sapiens, UniProt P02768); test: 3D-EEM fluorescence spectra of HSA–PFAS; details: HSA 1 × 10^−6, PFAS 1.8 × 10^−5 mol·L^−1; for 3D-EEM Peak A Intensity F: HSA alone 673.66; for 3D-EEM Peak B Intensity F: HSA alone 996.906
T2 construct: HSA (≥96%) and six PFAS were all purchased from Aladdin Chemicals (Shanghai, China); purchased Aladdin Chemicals (Shanghai, China)
Description: The 3D-EEM spectra were recorded using specific scanning parameters at the scanning rate of 2400 nm·min^−1, an […] with 5 nm increments, and an emission of 280–550 nm with 2 nm increments. The concentrations of PFAS and HSA were set at 18 × 10^−6 mol·L^−1 and 1 × 10^−6 mol·L^−1, respectively.

HSA [4] = biological target: T2, HSA; test: Circular dichroism (CD) spectrum, secondary structure of HSA; details: HSA:PFAS 1:18, 298 K; for HSA secondary structure: β-Sheet: HSA alone 4.9; for HSA secondary structure: β-Turn: HSA alone 16.9; for HSA secondary structure: Random Coil: HSA alone 36.7; for HSA secondary structure: α-Helix: HSA alone 41.6
Source text: CD measurements (190–260 nm) were taken before and after the addition of PFAS to HSA using a J-815 CD spectrometer equipped with a PMT detector (JASCO, Tokyo, Japan). The protein concentration was set at 1 × 10^−6 mol/L, with a fixed HSA-to-PFAS concentration ratio of 1:18. The scanning rate was set to 100 nm/min with 0.5 nm increments, and the photometric mode of HT. Each sample was scanned three times. The blank buffer control was automatically subtracted during the scanning process. All tests were carried out at 298 K. The CONTIN analysis method from the DichroWeb was employed to determine the contents of the protein’s secondary structure.

HSA [5] = biological target: T2, HSA; test: Competitive probe experiment (warfarin, ibuprofen, lidocaine); type: binding
Source text: Competitive probe experiments are commonly used to identify specific binding sites in the structure of proteins. Three probe molecules known to bind to distinct binding sites on HSA were selected: warfarin (subdomain IIA), ibuprofen (subdomain IIIA), and lidocaine (subdomain IIB). These probe molecules would compete with PFAS for the same protein sites when binding with HSA. The potential binding sites can be inferred by monitoring and comparing changes in fluorescence intensity when probe molecules are present.

T2 sequence (P02768 25-609): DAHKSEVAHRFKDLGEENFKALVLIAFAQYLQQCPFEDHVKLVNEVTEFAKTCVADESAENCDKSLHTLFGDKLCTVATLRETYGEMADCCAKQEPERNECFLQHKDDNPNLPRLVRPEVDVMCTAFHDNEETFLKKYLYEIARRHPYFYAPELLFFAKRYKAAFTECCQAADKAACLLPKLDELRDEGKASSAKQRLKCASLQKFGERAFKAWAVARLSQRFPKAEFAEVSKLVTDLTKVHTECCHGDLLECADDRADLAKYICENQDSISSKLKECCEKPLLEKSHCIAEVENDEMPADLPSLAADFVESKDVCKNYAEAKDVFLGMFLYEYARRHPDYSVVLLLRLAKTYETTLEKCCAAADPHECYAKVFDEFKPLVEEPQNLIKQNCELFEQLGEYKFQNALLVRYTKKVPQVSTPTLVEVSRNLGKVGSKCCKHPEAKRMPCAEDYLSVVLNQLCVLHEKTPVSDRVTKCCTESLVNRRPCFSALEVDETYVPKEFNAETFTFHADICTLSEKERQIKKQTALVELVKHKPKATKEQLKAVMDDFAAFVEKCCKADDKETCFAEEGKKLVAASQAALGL
T1 sequence (P02768 25-609): as above

Row | Structure (SMILES) | fluorescence quenching mechanism [2] | quenching of HSA fluorescence intensity [2] [%] | KSV (Stern–Volmer quenching constant) ([2]; T = 298 K) | n (number of binding sites) ([2]; T = 298 K) | ΔG ([2]; T = 298 K) [kcal/mol] | Kq (quenching rate constant) ([2]; T = 298 K, τ0 taken as 10^−8 s) | KSV (Stern–Volmer quenching constant) ([2]; T = 304 K) | n (number of binding sites) ([2]; T = 304 K) | ΔG ([2]; T = 304 K) [kcal/mol] | Kq (quenching rate constant) ([2]; T = 304 K, τ0 taken as 10^−8 s) | KSV (Stern–Volmer quenching constant) ([2]; T = 310 K) | n (number of binding sites) ([2]; T = 310 K) | ΔG ([2]; T = 310 K) [kcal/mol] | Kq (quenching rate constant) ([2]; T = 310 K, τ0 taken as 10^−8 s) | ΔH [2] [kcal/mol] | ΔS [2] [J·mol^−1·K^−1] | affinity for HSA [2] | main interaction force from thermodynamic analysis [2] | 3D-EEM Peak A Position λex/λem (HSA [3]) | 3D-EEM Peak B Position λex/λem (HSA [3]) | also measured
1 | O=S(=O)(O)C(F)(F)C(F)(F)C(F)(F)C(F)(F)C(F)(F)C(F)(F)C(F)(F)C(F)(F)F [PFOS, Perfluorooctanesulfonic acid] | – | – | – | – | – | – | – | – | – | – | – | – | – | – | – | – | – | – | – | – | average half-life ([1]; study on 19 PFAS): ~4.52 years; average half-life [1]: 5.4 years
2 | O=C(O)C(F)(F)C(F)(F)C(F)(F)C(F)(F)C(F)(F)C(F)(F)C(F)(F)F [PFOA, Perfluorooctanoic Acid] | mixed quenching | 20.1 | 1.39 ± 0.07 × 10^4 L·mol^−1 | 1.26 ± 0.04 | -7.302 | 1.39 ± 0.07 × 10^12 L·mol^−1·s^−1 | 1.46 ± 0.09 × 10^4 L·mol^−1 | 1.31 ± 0.02 | -7.851 | 1.46 ± 0.09 × 10^12 L·mol^−1·s^−1 | 1.47 ± 0.11 × 10^4 L·mol^−1 | 1.47 ± 0.03 | -9.003 | 1.47 ± 0.11 × 10^12 L·mol^−1·s^−1 | 35.057 ± 1.53 | 593.3 ± 22.7 | high affinity | hydrophobic interactions | 280/336 | 230/327 | Kq (quenching rate constant) ([2]; 298 K): 1.39e+12 L/mol/s; HSA fluorescence peak position after PFAS addition (blue shift from 337 nm) [2]: 320 nm; 3D-EEM Peak A Intensity F (HSA [3]): 476.59 a.u.; 3D-EEM Peak B Intensity F (HSA [3]): 812.58 a.u.; HSA secondary structure: β-Sheet (HSA [4]): 6.4%; HSA secondary structure: β-Turn (HSA [4]): 15.8%; HSA secondary structure: Random Coil (HSA [4]): 40.5%; HSA secondary structure: α-Helix (HSA [4]): 37.2%; φ (rate of decrease in Kb) (HSA [5]; lidocaine probe): 8.1%; φ (rate of decrease in Kb) (HSA [5]; warfarin probe): 96.1%; average half-life ([1]; study on 19 PFAS): approximately 2.47 years; average half-life [1]: 3.8 years
3 | O=C(O)C(F)(F)OC(F)(F)C(F)(F)OC(F)(F)C(F)(F)OC(F)(F)F [PFO3DA, Perfluoro-3,6,9-trioxadecanoic Acid] | static quenching | 15.3 | 1.05 ± 0.06 × 10^4 L·mol^−1 | 1.25 ± 0.03 | -7.091 | 1.05 ± 0.06 × 10^12 L·mol^−1·s^−1 | 1.03 ± 0.06 × 10^4 L·mol^−1 | 1.33 ± 0.02 | -6.479 | 1.03 ± 0.06 × 10^12 L·mol^−1·s^−1 | 0.87 ± 0.04 × 10^4 L·mol^−1 | 1.10 ± 0.03 | -6.348 | 0.87 ± 0.04 × 10^12 L·mol^−1·s^−1 | -25.471 ± 0.937 | −259.2 ± 9.4 | high affinity | hydrogen bonds or van der Waals interactions; also recorded: hydrogen bonds or van der Waals forces | 280/329 | 230/325 | 3D-EEM Peak A Intensity F (HSA [3]): 525.07 a.u.; 3D-EEM Peak B Intensity F (HSA [3]): 886.91 a.u.; HSA secondary structure: β-Sheet (HSA [4]): 5.8%; HSA secondary structure: β-Turn (HSA [4]): 17.3%; HSA secondary structure: Random Coil (HSA [4]): 40.6%; HSA secondary structure: α-Helix (HSA [4]): 36.4%; φ (rate of decrease in Kb) (HSA [5]; ibuprofen probe): 25.8%; φ (rate of decrease in Kb) (HSA [5]; lidocaine probe): 11.8%; φ (rate of decrease in Kb) (HSA [5]; warfarin probe): 95.1%
4 | O=C(O)C(F)(OC(F)(F)C(F)(OC(F)(F)C(F)(F)C(F)(F)F)C(F)(F)F)C(F)(F)F (stereo not shown) [HFPO-TA, Perfluoro-2,5-dimethyl-3,6-dioxanonanoic Acid] | mixed quenching | 25.1 | 1.78 ± 0.09 × 10^4 L·mol^−1 | 1.49 ± 0.03 | -8.956 | 1.78 ± 0.09 × 10^12 L·mol^−1·s^−1 | 1.95 ± 0.13 × 10^4 L·mol^−1 | 1.78 ± 0.07 | -11.03 | 1.95 ± 0.13 × 10^12 L·mol^−1·s^−1 | 1.98 ± 0.08 × 10^4 L·mol^−1 | 2.09 and 2.09 ± 0.08 | -13.28 | 1.98 ± 0.08 × 10^12 L·mol^−1·s^−1 | 98.506 ± 2.02 | 1508.3 ± 30.8 | high affinity | hydrophobic interactions | 280/321 | 230/314 | Kq (quenching rate constant) ([2]; 298 K): 1.78e+12 L/mol/s; HSA fluorescence peak position after PFAS addition (blue shift from 337 nm) [2]: 315 nm; 3D-EEM Peak A Intensity F (HSA [3]): 499.16 a.u.; 3D-EEM Peak B Intensity F (HSA [3]): 861.38 a.u.; HSA secondary structure: β-Sheet (HSA [4]): 5.1%; HSA secondary structure: β-Turn (HSA [4]): 15.8%; HSA secondary structure: Random Coil (HSA [4]): 38.5%; HSA secondary structure: α-Helix (HSA [4]): 40.6%; φ (rate of decrease in Kb) (HSA [5]; ibuprofen probe): 23.8%; φ (rate of decrease in Kb) (HSA [5]; lidocaine probe): 35.3%; φ (rate of decrease in Kb) (HSA [5]; warfarin probe): 99.6%
